Here are results for 35 compounds from US20090035306A1 (KALYPSYS, INC., priority 2006, published 2009).

The target of this test is T1, human TGR5 (Homo sapiens, UniProt Q8TDU6).
T1 construct: expressed in transfected cells
T1 sequence (Q8TDU6 1-330): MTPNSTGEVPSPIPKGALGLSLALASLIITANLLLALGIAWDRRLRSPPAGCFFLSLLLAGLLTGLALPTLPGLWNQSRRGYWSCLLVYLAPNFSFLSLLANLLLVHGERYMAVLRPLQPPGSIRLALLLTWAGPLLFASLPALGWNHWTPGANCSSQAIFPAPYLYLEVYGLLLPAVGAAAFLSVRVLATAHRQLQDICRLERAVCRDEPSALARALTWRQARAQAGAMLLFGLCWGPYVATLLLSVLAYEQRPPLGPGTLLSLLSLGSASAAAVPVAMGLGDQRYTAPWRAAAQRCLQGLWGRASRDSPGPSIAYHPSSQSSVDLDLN
Put plainly: cAMP production assay in HEK293 cells stably expressing TGR5 (LANCE TR-FRET). The format is cell-based. The following applies: 30 minutes stimulation, read-out: cAMP Production in 293-TGR5 Cells EC50. As to the method: HEK293 cells stably expressing TGR5 (HEK293-TGR5) were established by stably transfecting HEK-293 cells with an expression vector (pcDNA 3.1, Invetrogen) inserted with human TGR5 cDNA using Fugene6 (Roche, Indianapolis, Ind.) according to conventional methods. Cells were grown in DMEM (invitrogen, Carlsbad, Calif.) supplemented with 10% FBS, 1% penicillin/streptomycin under geneticin selection. The presence of TGR5 transcripts in these cells was confirmed using branched DNA (bDNA, Genospectra, Inc., Fremont Calif.) following the manufacturer's protocol and using specific probes for human TGR5. cAMP production assay was performed in high throughput 1536 well format using LANCE cAMP detection kit (Perkin Elmer Inc., Boston, Mass.) according to the manufacturer's protocol. Briefly, HEK293-TGR5 cells were harvested using non-enzymatic cell dissociation buffer (Invitrogen, Carlsbad, Calif.) and suspended in DMEM supplemented with 0.1% FBS at a density of 800,000 cells/ml. Alexa antibody was added to the cell suspension, and 4 ul of the mixture was dispensed in white opaque tissue culture treated Greiner 1536 well plates (USA Scientific, Inc., Ocala, Fla.). After an overnight incubation at 37 C in an atmosphere of 10% CO2 and 95% humidity, 1 ul of 5 mM IBMX (Sigma, St. Louis, Mo.) solution in DMEM was dispensed for a final concentration of 1 mM. Cells were then stimulated with test compounds for 30 minutes, after which time 5 ul of detection reagent was added and incubated for 1-7 hrs at room temperature. TR-FRET signal was detected using the Viewlux (Perkin Elmer Inc., Boston Mass.). EC50 values were determined using Graph Pad Prizm analysis (GraphPad Software, Inc). The EC50 values for a wide range of bile acids generated from this assay were in agreement with the values published in the scientific literature. […] The symbol (+) denotes an EC50 value of ≦10 μM while the symbol (−) denotes an EC50 value of >10 μM (see Table 1).
For orientation: Cyclic AMP is a second messenger, typically raised through Gs and lowered through Gi signalling.
Consider `Cc1cccc2c(=O)n(NCc3ccc(Br)cc3)c(-c3ccc(F)cc3)nc12` [Example 70, 3-(4-bromobenzylamino)-2-(4-fluorophenyl)-8-methylquinazolin-4(3H)-one], for which the EC50 was ≤ 10 µM.

For `Cc1cccc2c(=O)n(NCc3ccc(Cl)cc3)c(-c3ccc(F)cc3)nc12` [Example 71, 3-(4-chlorobenzylamino)-2-(4-fluorophenyl)-8-methylquinazolin-4(3H)-one], the EC50 is ≤ 10 µM.

For `COc1cc(-c2nc3ccccc3c(=O)n2NCc2ccc(Br)cc2)ccc1F` [Example 72, 3-(4-bromobenzylamino)-2-(4-fluoro-3-methoxyphenyl)quinazolin-4(3H)-one], the EC50 is ≤ 10 µM.

Consider `COc1cc(-c2nc3ccccc3c(=O)n2NCc2ccc(Cl)cc2)ccc1F` [Example 73, 3-(4-chlorobenzylamino)-2-(4-fluoro-3-methoxyphenyl)quinazolin-4(3H)-one], for which the EC50 is ≤ 10 µM.

For the compound `COc1cc(-c2nc3ccccc3c(=O)n2NCc2ccc(Br)cc2)ccc1Cl` [Example 74, 3-(4-Bromo-benzylamino)-2-(4-chloro-3-methoxy-phenyl)-3H-quinazolin-4-one], the EC50 is ≤ 10 µM.

With `COc1cc(-c2nc3ccccc3c(=O)n2NCc2ccc(Cl)cc2)ccc1Cl` [Example 75, 3-(4-Chloro-benzylamino)-2-(4-chloro-3-methoxy-phenyl)-3H-quinazolin-4-one], the EC50 is ≤ 10 µM.

On to `COc1cccc2c(=O)n(NCc3ccc(Br)cc3)c(-c3ccc(F)cc3)nc12` [Example 76, 3-(4-Bromo-benzylamino)-2-(4-fluoro-phenyl)-8-methoxy-3H-quinazolin-4-one], for which the EC50 was ≤ 10 µM.

In the case of `COc1cccc2c(=O)n(NCc3ccc(Cl)cc3)c(-c3ccc(F)cc3)nc12` [Example 77, 3-(4-Chloro-benzylamino)-2-(4-fluoro-phenyl)-8-methoxy-3H-quinazolin-4-one], the EC50 was ≤ 10 µM.

As to `O=c1c2ccccc2nc(-c2ccc(F)cc2)n1NCc1ccc(C(F)(F)F)cc1` [Example 78, 2-(4-fluorophenyl)-3-(4-(trifluoromethyl)benzylamino)quinazolin-4(3H)-one], the EC50 is ≤ 10 µM.

For `O=c1c2ccccc2nc(-c2ccc(F)cc2)n1NCc1ccc(Cl)cc1` [Example 79, 3-(4-chlorobenzylamino)-2-(4-fluorophenyl)quinazolin-4(3H)-one], the EC50 is ≤ 10 µM.

For `O=c1c2ccccc2nc(-c2ccc(F)cc2)n1NCc1ccc(F)cc1F` [Example 80, 3-(2,4-difluorobenzylamino)-2-(4-fluorophenyl)quinazolin-4(3H)-one], the EC50 is ≤ 10 µM.

Take `Cc1ccc2c(=O)n(NCc3ccc(Br)cc3)c(-c3ccc(F)cc3)nc2c1` [Example 81, 3-(4-bromobenzylamino)-2-(4-fluorophenyl)-7-methylquinazolin-4(3H)-one]: the EC50 was ≤ 10 µM.

Consider `Cc1ccc2c(=O)n(NCc3ccc(C(F)(F)F)cc3)c(-c3ccc(F)cc3)nc2c1` [Example 82, 2-(4-fluorophenyl)-7-methyl-3-(4 (trifluoromethyl)benzylamino)quinazolin-4(3H)-one], for which the EC50 is > 10 µM.

For the compound `COc1cc2nc(-c3ccc(F)cc3)n(NCc3ccc(Br)cc3)c(=O)c2cc1OC` [Example 83, 3-(4-bromobenzylamino)-2-(4-fluorophenyl)-6,7-dimethoxy-quinazolin-4(3H)-one], the EC50 is > 10 µM.

Consider `O=c1c2ccccc2nc(-c2ccc(F)cc2)n1NCCc1cccc(Br)c1` [Example 84, 3-(3-bromophenethylamino)-2-(4-fluorophenyl)quinazolin-4(3H)-one], for which the EC50 is > 10 µM.

As to `O=c1c2ccccc2nc(-c2ccc(F)cc2)n1NCCc1ccc(Br)cc1` [Example 85, 3-(4-bromophenethylamino)-2-(4-fluorophenyl)quinazolin-4(3H)-one], the EC50 is ≤ 10 µM.

Consider `O=c1c2ccccc2nc(-c2cccs2)n1NCc1ccc(Br)cc1` [Example 86, 3-(4-bromobenzylamino)-2-(thiophen-2-yl)quinazolin-4(3H)-one], for which the EC50 was ≤ 10 µM.

Take `O=c1c2ccccc2nc(-c2cccs2)n1NCc1ccc(C(F)(F)F)cc1` [Example 87, 2-(thiophen-2-yl)-3-(4-(trifluoromethyl)benzylamino)quinazolin-4(3H)-one]: the EC50 is ≤ 10 µM.

In the case of `O=c1c2ccccc2nc(-c2cccs2)n1N(Cc1ccc(C(F)(F)F)cc1)Cc1ccc(C(F)(F)F)cc1` [Example 88, 3-(bis(4-(trifluoromethyl)benzyl)amino)-2-(thiophen-2-yl)quinazolin-4(3H)-one], the EC50 was ≤ 10 µM.

Regarding `O=c1c2ccccc2nc(-c2ccsc2)n1NCc1ccc(Br)cc1` [Example 89, 3-(4-bromobenzylamino)-2-(thiophen-3-yl)quinazolin-4(3H)-one], the EC50 was ≤ 10 µM.

`CN(Cc1ccc(Br)cc1)n1c(-c2ccc(F)cc2)nc2ccccc2c1=O` [Example 90, 3-((4-bromobenzyl)(methyl)amino)-2-(4-fluorophenyl)quinazolin-4(3H)-one]: the EC50 was ≤ 10 µM.

Turning to `O=c1c2ccccc2nc(-c2ccc(F)cc2)n1NCc1cc(C(F)(F)F)cc(C(F)(F)F)c1` [Example 91, 3-(3,5-bis(trifluoromethyl)benzylamino)-2-(4-fluorophenyl)quinazolin-4(3H)-one], the EC50 was ≤ 10 µM.

Take `O=c1c2ccccc2nc(-c2ccc(F)c(F)c2)n1NCc1ccc(Br)cc1` [Example 92, 3-(4-bromobenzylamino)-2-(3,4-difluorophenyl)quinazolin-4(3H)-one]: the EC50 is ≤ 10 µM.

Consider `CCN(Cc1ccc(Br)cc1)n1c(-c2ccc(F)cc2)nc2ccccc2c1=O` [Example 93, 3-((4-bromobenzyl)(ethyl)amino)-2-(4-fluorophenyl)quinazolin-4(3H)-one], for which the EC50 was ≤ 10 µM.

For the compound `CCCN(Cc1ccc(Br)cc1)n1c(-c2ccc(F)cc2)nc2ccccc2c1=O` [Example 94, 3-((4-bromobenzyl)(propyl)amino)-2-(4-fluorophenyl)quinazolin-4(3H)-one], the EC50 was ≤ 10 µM.

As to `O=c1c2ccc(O)cc2nc(-c2ccc(F)cc2)n1NCc1ccc(Br)cc1` [Example 95, 3-(4-bromobenzylamino)-2-(4-fluorophenyl)-7-hydroxy quinazolin-4(3H)-one], the EC50 is ≤ 10 µM.

Turning to `O=c1c2ccccc2nc(-c2cccc(O)c2)n1NCc1ccc(Br)cc1` [Example 96, 3-(4-bromobenzylamino)-2-(3-hydroxyphenyl)quinazolin-4(3H)-one], the EC50 was ≤ 10 µM.

For `O=c1c2ccccc2nc(-c2ccc(O)cc2)n1NCc1ccc(Br)cc1` [Example 97, 3-(4-bromobenzylamino)-2-(4-hydroxyphenyl)quinazolin-4(3H)-one], the EC50 is ≤ 10 µM.

Take `O=c1c2cc(O)ccc2nc(-c2ccc(F)cc2)n1NCc1ccc(Cl)cc1` [Example 98, 3-(4-chlorobenzylamino)-2-(4-fluorophenyl)-6-hydroxyquinazolin-4(3H)-one]: the EC50 was ≤ 10 µM.

`COc1cc(-c2nc3ccccc3c(=O)n2NCc2ccc(Br)cc2)ccc1O` [Example 99, 3-(4-bromobenzylamino)-2-(4-hydroxy-3-methoxyphenyl)quinazolin-4(3H)-one]: the EC50 is ≤ 10 µM.

On to `COc1cc(-c2nc3ccccc3c(=O)n2NCc2ccc(Cl)cc2)ccc1O` [Example 100, 3-(4-chlorobenzylamino)-2-(4-hydroxy-3-methoxyphenyl)quinazolin-4(3H)-one], for which the EC50 was ≤ 10 µM.

With `O=C(O)c1ccc(CNn2c(-c3ccccc3F)nc3ccccc3c2=O)cc1` [Example 101, 4-((2-(2-fluorophenyl)-4-oxoquinazolin-3(4H)-ylamino)methyl)benzoic acid], the EC50 was > 10 µM.

For the compound `O=c1c2cc(F)ccc2nc(-c2cccc(F)c2)n1NCc1ccccc1` [Example 103, 3-(benzylamino)-6-fluoro-2-(3-fluorophenyl)quinazolin-4(3H)-one], the EC50 was ≤ 10 µM.

`O=c1c2ccccc2nc(-c2ccccc2)n1NCc1ccc(Br)cc1` [Example 104, 3-(4-bromobenzylamino)-2-phenylquinazolin-4(3H)-one]: the EC50 was ≤ 10 µM.

On to `O=c1c2ccccc2nc(-c2cccc(F)c2)n1NCc1ccc(Br)cc1` [Example 105, 3-(4-bromobenzylamino)-2-(3-fluorophenyl)quinazolin-4(3H)-one], for which the EC50 is ≤ 10 µM.

What is called EC50 is the concentration needed to bring the measured effect to its halfway point.
